The record followed here is ChEMBL document CHEMBL3244216, “Chemical modification of 1,4-diamino-1,4-dideoxy-3-O-(4-deoxy-4-propionamido-alpha-D-glucopyranosyl)-D-glucitol” (1978).

In brackets after ≈: the same amount, converted by molar mass. Activity calls are given as the source filed them. The calls are words filed in the database; no cut-off is given here.

For assay [1], the system named is Pseudomonas aeruginosa. Description: Antibacterial activity against Pseudomonas aeruginosa 2956 assessed as growth inhibition by agar dilution method. It is filed as functional. On the set-up: unit not given here. (In general: In agar dilution, organisms are placed on agar that contains the substance at set levels.)
Assay [2] concerns Pseudomonas aeruginosa. Description: Antibacterial activity against kanamycin and gentamicin-resistant Pseudomonas aeruginosa 3033 assessed as growth inhibition at => 200 ul/ml by agar dilution method. The format is functional, organism-based.
Assay [3] concerns Escherichia coli. As to the kind of experiment: Antibacterial activity against drug-sensitive Escherichia coli 60 assessed as growth inhibition by agar dilution method. The format is functional. On the set-up: unit not given here.
The test system of assay [4] is Serratia. As to the kind of experiment: Antibacterial activity against unpigmented Serratia 2840 assessed as growth inhibition by agar dilution method. The format is functional. Further details: unit not given here.
In assay [5] the test system is Klebsiella. Description: Antibacterial activity against drug-sensitive Klebsiella 2921 assessed as growth inhibition by agar dilution method. It is filed as functional.
The subject of assay [6] is Salmonella. Description: Antibacterial activity against drug-sensitive Salmonella 1287 assessed as growth inhibition at => 200 ul/ml by agar dilution method. It is filed as functional, organism-based.
Assay [7] has as its system Escherichia coli. Description: Antibacterial activity against drug-sensitive Escherichia coli 2482 assessed as growth inhibition by agar dilution method. The format is functional. Further details: unit not given here.
Assay [8] has as its system Enterococcus faecalis. Description: Antibacterial activity against Streptococcus faecalis 755 assessed as growth inhibition by agar dilution method. It is filed as functional. Further details: unit not given here.
The subject of assay [9] is Salmonella. As to the kind of experiment: Antibacterial activity against drug-sensitive Salmonella 1287 assessed as growth inhibition by agar dilution method. The format is functional. On the set-up: unit not given here.
Assay [10] deals with Bacillus subtilis. Description: Antibacterial activity against drug-sensitive Bacillus subtilis 964 assessed as growth inhibition by agar dilution method. It is filed as functional. Further details: unit not given here.
Assay [11] concerns Serratia. As to the kind of experiment: Antibacterial activity against pigmented Serratia 155 assessed as growth inhibition by agar dilution method. The format is functional. Further details: unit not given here.
Assay [12] concerns Erwinia. Description: Antibacterial activity against drug-sensitive Erwinia 1159 assessed as growth inhibition by agar dilution method. It is filed as functional. Further details: unit not given here.
The subject of assay [13] is Enterococcus faecalis. Description: Antibacterial activity against Streptococcus faecalis 755 assessed as growth inhibition at => 200 ul/ml by agar dilution method. It is filed as functional, organism-based.
The subject of assay [14] is Pseudomonas aeruginosa. As to the kind of experiment: Antibacterial activity against Pseudomonas aeruginosa 2956 assessed as growth inhibition at => 200 ul/ml by agar dilution method. The format is functional, organism-based.
The subject of assay [15] is Proteus vulgaris. Description: Antibacterial activity against drug-sensitive Proteus vulgaris 838 assessed as growth inhibition at => 200 ul/ml by agar dilution method. The format is functional, organism-based.
Assay [16] relates to Staphylococcus aureus. As to the kind of experiment: Antibacterial activity against drug-sensitive Staphylococcus aureus 2985 assessed as growth inhibition by agar dilution method. It is filed as functional. On the set-up: unit not given here.
The test system of assay [17] is Proteus vulgaris. As to the kind of experiment: Antibacterial activity against drug-sensitive Proteus vulgaris 838 assessed as growth inhibition by agar dilution method. On the set-up: unit not given here. It is filed as functional.
The test system of assay [18] is Staphylococcus aureus. As to the kind of experiment: Antibacterial activity against streptomycin, neomycin, kanamycin-resistant Staphylococcus aureus 2314 assessed as growth inhibition at => 200 ul/ml by agar dilution method. It is filed as functional, organism-based.
Assay [19] has as its system Staphylococcus aureus. Description: Antibacterial activity against Staphylococcus aureus 210 assessed as growth inhibition by agar dilution method. It is filed as functional. Further details: unit not given here.
The subject of assay [20] is Staphylococcus aureus. Description: Antibacterial activity against streptomycin, neomycin, kanamycin-resistant Staphylococcus aureus 2314 assessed as growth inhibition by agar dilution method. The format is functional.
The test system of assay [21] is Brucella. Description: Antibacterial activity against drug-sensitive Brucella 965 assessed as growth inhibition at => 200 ul/ml by agar dilution method. The format is functional.
In assay [22] the test system is Brucella. As to the kind of experiment: Antibacterial activity against drug-sensitive Brucella 965 assessed as growth inhibition by agar dilution method. Further details: unit not given here. It is filed as functional.
Assay [23] has as its system Pseudomonas aeruginosa. As to the kind of experiment: Antibacterial activity against kanamycin and gentamicin-resistant Pseudomonas aeruginosa 3033 assessed as growth inhibition by agar dilution method. It is filed as functional.
Assay [24] concerns Klebsiella. Description: Antibacterial activity against drug-sensitive Klebsiella 2921 assessed as growth inhibition at => 200 ul/ml by agar dilution method. The format is functional, organism-based.
The subject of assay [25] is Proteus vulgaris. As to the kind of experiment: Antibacterial activity against drug-sensitive Proteus vulgaris 838 assessed as growth inhibition at => 100 ul/ml by agar dilution method. The format is functional, organism-based.
In assay [26] the test system is Escherichia coli. As to the kind of experiment: Antibacterial activity against streptomycin, neomycin, kanamycin, gentamicin-resistant Escherichia coli 2964 assessed as growth inhibition by agar dilution method. It is filed as functional.

As for `CCCC(=O)N[C@H]1[C@H](O)[C@@H](O)[C@@H](O[C@@H]([C@H](N)[C@H](O)CO)[C@@H](O)CN)O[C@@H]1CO`, the MIC is on record as 200 in assay [1]; 200 in assay [3]; 200 in [4]; 200 uL/ml in assay [5]; 200 in [7]; 200 in assay [8]. For the same compound, the MIC in assay [9] was 200; in assay [10] it was 100; in assay [11], greater than 200; in assay [12] it was greater than 200; in assay [16], 200; in [17] it was 200. Moreover, the MIC in [19] is reported as 200. Further, the “growth inhibition (GI)” value in assay [2], in [6], in [13], in assay [14], in [15] and in assay [18] was “inactive” throughout.

As for `CC(=O)N[C@H]1[C@H](O)[C@@H](O)[C@@H](O[C@@H]([C@H](N)[C@H](O)CO)[C@@H](O)CN)O[C@@H]1CO`, the MIC was greater than 200 mg/L in [20]; 200 in [22]; 200 in assay [3]; greater than 200 in assay [4]; 100 in assay [7]; greater than 200 in assay [8]. Besides, the MIC in [9] is 200; in assay [10], 100; in [11], greater than 200; in assay [12], 100; in assay [16] it was 200; in assay [23], greater than 200 mg/L. The MIC in [17] and in assay [19] was 200 each time. For the same compound, in assay [21], the “growth inhibition (GI)” value was “inactive”.

For the compound `CCCN[C@H]1[C@H](O)[C@@H](O)[C@@H](O[C@@H]([C@H](N)[C@H](O)CO)[C@@H](O)CN)O[C@@H]1CO`, the MIC in [20] is 100 mg/L (≈ 261 µM); in [1], 200; in [22], 200; in [3], 200; in assay [4], 200; in assay [5], 200 uL/ml. Also, the MIC in assay [7] is 200; in [8], 200; in assay [9] it was 100; in assay [10] it was 50; in [16], 50; in [23], greater than 200 mg/L. The values for the MIC in assay [17] and in assay [19] were 200 and 50, respectively. Also, the “growth inhibition (GI)” value in assay [24], in assay [13], in [14] and in assay [25] was “inactive” in each case.

Take `CCC(=O)N[C@H]1[C@H](O)[C@@H](O)[C@@H](O[C@@H]([C@H](N)[C@H](O)CO)[C@@H](O)CN)O[C@@H]1CO`: the MIC in assay [20] turned out to be 200 mg/L (≈ 503 µM); in [1], 50; in [22], 100; in [3], 50; in assay [4] it was 200; in assay [7] it was 50. For the same compound, the MIC is recorded as 200 in assay [8]; less than 3.1 in assay [9]; 50 in assay [10]; greater than 200 in assay [11]; less than 3.1 in assay [12]; 100 in assay [16]. Moreover, the MIC was determined as 100 mg/L (≈ 252 µM) in assay [23], 100 in assay [17] and 50 in assay [19].

As to `NC[C@H]1O[C@H](O[C@H]2[C@H](O)[C@@H](O[C@H]3O[C@H](CO)[C@@H](O)[C@H](N)[C@H]3O)[C@H](N)C[C@@H]2N)[C@H](O)[C@@H](O)[C@@H]1O` [KANAMYCIN], the MIC was greater than 100 mg/L in assay [20], 100 mg/L (≈ 206 µM) in assay [26] and 100 mg/L (≈ 206 µM) in [23].

For the compound `CCC(=O)N[C@H]1[C@H](O)[C@@H](O)[C@@H](O[C@@H]([C@H](N)[C@H](O)CO)[C@@H](O)CN)O[C@@H]1CCl`, the MIC in assay [20] turned out to be 200 mg/L (≈ 481 µM); in assay [1] it was 100; in [22], 100; in assay [3], 100; in assay [4], 100; in [5] it was 50 uL/ml. For the same compound, the MIC in [7] is 100; in assay [8], 200; in assay [9], 50; in [10], 50; in assay [11], 200; in assay [12], greater than 25. Besides, the values for the MIC in assay [16], in [17] and in assay [19] were 50, 200 and 50, respectively.
